# From PubChem BioAssay (NCI)
#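 The compound was tested at five concentrations on cells cultured in 96-well plates, with a 48-hour exposure period. Abbreviation: GI50, concentration required for 50% inhibition of growth. The concentration for full growth arrest is given as TGI.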
# Experiments:
# Experiment in all cases: growth of human tumour cells (NCI), 48 h
# MDA-MB-231 breast = tested on: MDA-MB-231 breast
# RXF 393 renal = tested on: RXF 393 renal
# HL-60(TB) leukemia = tested on: HL-60(TB) leukemia
# HOP-62 NSCLC = tested on: HOP-62 NSCLC
# OVCAR-3 ovarian = tested on: OVCAR-3 ovarian
# SK-OV-3 ovarian = tested on: SK-OV-3 ovarian
# A498 renal = tested on: A498 renal
# HCC-2998 colon = tested on: HCC-2998 colon
# NCI-H23 lung = tested on: NCI-H23 lung
# OVCAR-4 ovarian = tested on: OVCAR-4 ovarian
smiles,measurement,setting,value
O=C1C(Cl)=C(N(C(=O)c2ccccc2)C(=O)c2ccccc2)C(=O)c2ccccc21,TGI,MDA-MB-231 breast,> 100 µM
same,TGI,RXF 393 renal,15.8 µM
same,TGI,HL-60(TB) leukemia,3.15 µM
same,TGI,HOP-62 NSCLC,> 100 µM
same,TGI,OVCAR-3 ovarian,22.9 µM
same,TGI,SK-OV-3 ovarian,> 100 µM
same,TGI,A498 renal,> 100 µM
same,TGI,HCC-2998 colon,37.4 µM
same,TGI,NCI-H23 lung,31.1 µM
Nc1ncn2c(n1)nc1ccccc12,TGI,MDA-MB-231 breast,> 100 µM
same,TGI,RXF 393 renal,> 100 µM
same,TGI,HL-60(TB) leukemia,> 100 µM
same,TGI,SK-OV-3 ovarian,> 100 µM
same,TGI,A498 renal,> 100 µM
same,TGI,NCI-H23 lung,> 100 µM
same,TGI,OVCAR-4 ovarian,> 100 µM
O=C(N=c1ccc2nc(=O)[nH]n(O)c-2c1)C(F)(F)F,TGI,MDA-MB-231 breast,> 100 µM
same,TGI,HL-60(TB) leukemia,> 100 µM
same,TGI,HOP-62 NSCLC,> 100 µM
same,TGI,OVCAR-3 ovarian,> 100 µM
same,TGI,SK-OV-3 ovarian,> 100 µM
same,TGI,A498 renal,> 100 µM
same,TGI,NCI-H23 lung,> 100 µM
same,TGI,OVCAR-4 ovarian,> 100 µM
CC(=O)Oc1c2c(c3n(c1=O)CCCC3)C(=O)N(c1ccccc1)C2=O,TGI,MDA-MB-231 breast,> 100 µM
same,TGI,RXF 393 renal,> 100 µM
same,TGI,HL-60(TB) leukemia,> 100 µM
same,TGI,HOP-62 NSCLC,> 100 µM
same,TGI,OVCAR-3 ovarian,> 100 µM
same,TGI,SK-OV-3 ovarian,> 100 µM
same,TGI,HCC-2998 colon,97.2 µM
same,TGI,NCI-H23 lung,> 100 µM
same,TGI,OVCAR-4 ovarian,> 100 µM
O=C(c1ccccc1)C1S(=O)(=O)OCCOS1(=O)=O,TGI,HL-60(TB) leukemia,> 100 µM
same,TGI,HOP-62 NSCLC,> 100 µM
same,TGI,OVCAR-3 ovarian,> 100 µM
same,TGI,SK-OV-3 ovarian,> 100 µM
same,TGI,HCC-2998 colon,> 100 µM
same,TGI,NCI-H23 lung,> 100 µM
same,TGI,OVCAR-4 ovarian,> 100 µM
O=C1CC(c2ccccc2)=Nc2ccccc2N1,TGI,RXF 393 renal,> 100 µM
same,TGI,HL-60(TB) leukemia,> 100 µM
same,TGI,HOP-62 NSCLC,> 100 µM
same,TGI,OVCAR-3 ovarian,> 100 µM
same,TGI,SK-OV-3 ovarian,> 100 µM
same,TGI,A498 renal,> 100 µM
same,TGI,HCC-2998 colon,> 100 µM
same,TGI,NCI-H23 lung,> 100 µM
same,TGI,OVCAR-4 ovarian,> 100 µM
O=C1/C=C(/c2ccc(O)cc2)[C@@H](O)Cc2ccc(O)cc2O1,TGI,HOP-62 NSCLC,> 100 µM
same,TGI,OVCAR-3 ovarian,> 100 µM
same,TGI,SK-OV-3 ovarian,> 100 µM
same,TGI,A498 renal,86.4 µM
same,TGI,NCI-H23 lung,> 100 µM
same,TGI,OVCAR-4 ovarian,> 100 µM
O=c1ccn(C2OC(CO)C(O)C2F)c(=O)n1Cc1ccccc1 (stereo not drawn),TGI,MDA-MB-231 breast,> 100 µM
same,TGI,RXF 393 renal,> 100 µM
same,TGI,HL-60(TB) leukemia,> 100 µM
same,TGI,HOP-62 NSCLC,> 100 µM
same,TGI,OVCAR-3 ovarian,> 100 µM
same,TGI,NCI-H23 lung,> 100 µM
CCOC(=O)/C(=C/c1ccc(C(=O)OC)cc1)N(CC)CC,TGI,HL-60(TB) leukemia,69.4 µM
same,TGI,HOP-62 NSCLC,> 100 µM
same,TGI,OVCAR-3 ovarian,60 µM
same,TGI,SK-OV-3 ovarian,> 100 µM
same,TGI,HCC-2998 colon,> 100 µM
same,TGI,NCI-H23 lung,> 100 µM
same,TGI,OVCAR-4 ovarian,> 100 µM
NC(CSSCC(N)=NCC12CC3CC(CC(C3)C1)C2)=NCC12CC3CC(CC(C3)C1)C2,TGI,MDA-MB-231 breast,16.2 µM
same,TGI,RXF 393 renal,> 100 µM
same,TGI,HL-60(TB) leukemia,26.3 µM
same,TGI,HOP-62 NSCLC,> 100 µM
same,TGI,OVCAR-3 ovarian,35.6 µM
same,TGI,SK-OV-3 ovarian,36.5 µM
same,TGI,A498 renal,51 µM
same,TGI,NCI-H23 lung,32.3 µM
same,TGI,OVCAR-4 ovarian,45.3 µM
Cc1cc(=O)n2nc(CCl)sc2n1,TGI,MDA-MB-231 breast,37.5 µM
same,TGI,RXF 393 renal,20.8 µM
same,TGI,HL-60(TB) leukemia,38.2 µM
same,TGI,HOP-62 NSCLC,40.2 µM
same,TGI,OVCAR-3 ovarian,28.4 µM
same,TGI,SK-OV-3 ovarian,53.2 µM
same,TGI,HCC-2998 colon,31.1 µM
same,TGI,NCI-H23 lung,47.1 µM
same,TGI,OVCAR-4 ovarian,32.4 µM
CCOC(=O)c1nc2ccc(C(F)(F)F)cc2nc1Nc1ccc(Cl)c(Cl)c1,TGI,MDA-MB-231 breast,> 100 µM
same,TGI,RXF 393 renal,> 100 µM
same,TGI,HL-60(TB) leukemia,> 100 µM
same,TGI,HOP-62 NSCLC,> 100 µM
same,TGI,OVCAR-3 ovarian,> 100 µM
same,TGI,SK-OV-3 ovarian,> 100 µM
same,TGI,A498 renal,> 100 µM
same,TGI,HCC-2998 colon,> 100 µM
same,TGI,NCI-H23 lung,> 100 µM
Clc1cccc(NN=Nc2ccc(-c3nc4ccccc4s3)cc2)c1,TGI,RXF 393 renal,82.8 µM
same,TGI,HL-60(TB) leukemia,27.2 µM
same,TGI,HOP-62 NSCLC,> 100 µM
same,TGI,OVCAR-3 ovarian,> 100 µM
same,TGI,SK-OV-3 ovarian,> 100 µM
same,TGI,A498 renal,> 100 µM
same,TGI,HCC-2998 colon,> 100 µM
same,TGI,NCI-H23 lung,63.3 µM
same,TGI,OVCAR-4 ovarian,> 100 µM
Cc1sc2c(c1C)/C(=N\O)c1cccn1-2,TGI,MDA-MB-231 breast,> 100 µM
same,TGI,RXF 393 renal,65.5 µM
same,TGI,HOP-62 NSCLC,63.3 µM
same,TGI,OVCAR-3 ovarian,> 100 µM
same,TGI,SK-OV-3 ovarian,> 100 µM
same,TGI,A498 renal,75.9 µM
same,TGI,HCC-2998 colon,> 100 µM
same,TGI,OVCAR-4 ovarian,> 100 µM
C=C(C)COC1CCCCO1 (stereo not drawn),TGI,MDA-MB-231 breast,> 100 µM
same,TGI,HL-60(TB) leukemia,> 100 µM
same,TGI,HOP-62 NSCLC,> 100 µM
same,TGI,OVCAR-3 ovarian,> 100 µM
same,TGI,SK-OV-3 ovarian,> 100 µM
same,TGI,A498 renal,> 100 µM
same,TGI,HCC-2998 colon,> 100 µM
same,TGI,NCI-H23 lung,> 100 µM
O=c1[nH]cc(Cl)c(=O)[nH]1,TGI,MDA-MB-231 breast,> 100 µM
same,TGI,RXF 393 renal,> 100 µM
same,TGI,HL-60(TB) leukemia,> 100 µM
same,TGI,OVCAR-3 ovarian,> 100 µM
same,TGI,SK-OV-3 ovarian,> 100 µM
same,TGI,A498 renal,> 100 µM
same,TGI,HCC-2998 colon,> 100 µM
same,TGI,NCI-H23 lung,> 100 µM
same,TGI,OVCAR-4 ovarian,> 100 µM
COc1c2c(c3ccccc3c1O)C1C=CC2C1 (stereo not drawn),TGI,RXF 393 renal,28.9 µM
same,TGI,HOP-62 NSCLC,29.7 µM
same,TGI,OVCAR-3 ovarian,27.6 µM
same,TGI,HCC-2998 colon,29.7 µM
same,TGI,NCI-H23 lung,28.9 µM
same,TGI,OVCAR-4 ovarian,28.7 µM
O=C(O)c1ccc(C2=Cc3cc(Cl)ccc3OC2)cc1,TGI,RXF 393 renal,> 100 µM
same,TGI,HL-60(TB) leukemia,> 100 µM
same,TGI,HOP-62 NSCLC,> 100 µM
same,TGI,OVCAR-3 ovarian,> 100 µM
same,TGI,SK-OV-3 ovarian,> 100 µM
same,TGI,A498 renal,> 100 µM
same,TGI,HCC-2998 colon,> 100 µM
same,TGI,NCI-H23 lung,> 100 µM
CCN(CC)CCN1C(=O)c2c(c3c4ccccc4[nH]c3c3ccc4ccccc4c23)C1=O,GI50,RXF 393 renal,1.42 µM
same,TGI,RXF 393 renal,2.83 µM
same,GI50,HL-60(TB) leukemia,2.04 µM
same,TGI,HL-60(TB) leukemia,4.35 µM
same,GI50,OVCAR-3 ovarian,1.65 µM
same,TGI,OVCAR-3 ovarian,3.03 µM
same,GI50,SK-OV-3 ovarian,1.57 µM
same,TGI,SK-OV-3 ovarian,3.01 µM
same,GI50,A498 renal,1.32 µM
same,TGI,A498 renal,2.61 µM
same,GI50,HCC-2998 colon,1.53 µM
same,TGI,HCC-2998 colon,3.08 µM
same,GI50,NCI-H23 lung,1.69 µM
same,TGI,NCI-H23 lung,3.52 µM
same,GI50,OVCAR-4 ovarian,1.58 µM
same,TGI,OVCAR-4 ovarian,2.96 µM
O=c1oc2ccccc2cc1-c1cn2c(n1)sc1ccccc12,TGI,MDA-MB-231 breast,> 100 µM
same,TGI,RXF 393 renal,> 100 µM
same,TGI,HL-60(TB) leukemia,> 100 µM
same,TGI,HOP-62 NSCLC,> 100 µM
same,TGI,OVCAR-3 ovarian,> 100 µM
same,TGI,SK-OV-3 ovarian,> 100 µM
same,TGI,HCC-2998 colon,> 100 µM
same,TGI,NCI-H23 lung,> 100 µM
NC1=NS(=O)(=O)Nc2nc(-c3ccccc3)[nH]c21,TGI,RXF 393 renal,> 100 µM
same,TGI,HL-60(TB) leukemia,> 100 µM
same,TGI,OVCAR-3 ovarian,> 100 µM
same,TGI,SK-OV-3 ovarian,> 100 µM
same,TGI,HCC-2998 colon,> 100 µM
same,TGI,NCI-H23 lung,> 100 µM
same,TGI,OVCAR-4 ovarian,> 100 µM
Cc1cccc(N2C(=O)C3c4[nH]c5ccccc5c4C4CCC(C(C)(C)C)CC4C3C2=O)c1 (stereo not drawn),TGI,MDA-MB-231 breast,21.3 µM
same,TGI,RXF 393 renal,26.3 µM
same,TGI,HL-60(TB) leukemia,> 100 µM
same,TGI,HOP-62 NSCLC,13.3 µM
same,TGI,OVCAR-3 ovarian,27.4 µM
same,TGI,A498 renal,25.8 µM
same,TGI,NCI-H23 lung,30.1 µM
same,TGI,OVCAR-4 ovarian,25.7 µM
CCOC(=O)C(Cc1ccc(OC(=O)OC(C)(C)C)cc1)NC(=O)OC(C)(C)C (stereo not drawn),TGI,MDA-MB-231 breast,> 100 µM
same,TGI,RXF 393 renal,> 100 µM
same,TGI,HL-60(TB) leukemia,80.1 µM
same,TGI,HOP-62 NSCLC,> 100 µM
same,TGI,OVCAR-3 ovarian,> 100 µM
same,TGI,SK-OV-3 ovarian,> 100 µM
same,TGI,HCC-2998 colon,76.6 µM
same,TGI,NCI-H23 lung,> 100 µM
same,TGI,OVCAR-4 ovarian,> 100 µM
CC(=O)NC(C)(C)C1CCC(C)=C(c2ccccc2)C1 (stereo not drawn),TGI,MDA-MB-231 breast,> 100 µM
same,TGI,HL-60(TB) leukemia,> 100 µM
same,TGI,HOP-62 NSCLC,> 100 µM
same,TGI,OVCAR-3 ovarian,> 100 µM
same,TGI,SK-OV-3 ovarian,> 100 µM
same,TGI,HCC-2998 colon,> 100 µM
same,TGI,NCI-H23 lung,> 100 µM
same,TGI,OVCAR-4 ovarian,> 100 µM
C=C1CC(Cn2ccc(=O)[nH]c2=O)(c2ccc(Cl)cc2)OC1=O (stereo not drawn),TGI,MDA-MB-231 breast,31.4 µM
same,TGI,HL-60(TB) leukemia,> 100 µM
same,TGI,HOP-62 NSCLC,36.4 µM
same,TGI,OVCAR-3 ovarian,21.8 µM
same,TGI,SK-OV-3 ovarian,28.3 µM
same,TGI,A498 renal,32.4 µM
same,TGI,HCC-2998 colon,31.2 µM
same,TGI,NCI-H23 lung,12.8 µM
same,TGI,OVCAR-4 ovarian,3.61 µM
